The record followed here is PubChem BioAssay AID1963860 (Molecular Pharmacology Branch, DTP, NCI, 2024).

In the assay the test system is CN0375-F725-PDC KRAS spheroid viability. Briefly: Anticancer human tumor CN0375-F725-PDC patient-derived colon carcinoma cell line growth inhibition [KRAS2]. Particulars: spheroids with HUVEC and MSC; for viability, T/C: stronger effect = lower value. From the text: Multicellular complex tumor spheroid response to RAS pathway inhibitors in combination with a targeted agents in patient-derived cell lines with oncogenic KRAS variants from multiple cancer types
A high-throughput screen of multi-cell type tumor spheroids was designed to identify active combinations of targeted small molecules and KRAS pathway inhibitors. Complex spheroids include a stromal component modeled by human endothelial cells (HUVEC) and fibroblasts modeled by human mesenchymal stem cells (MSCs). The concentration ranges selected for each drug and investigational agent were based upon clinically achievable concentrations if the clinical Cmax of the agent was known.
Compounds. The drugs and investigational agents: BI-3406 (NSC825286), BAY-293 (NSC824723), batoprotafib (TNO155; NSC825523), sotorasib (AMG 510; NSC818433), MRTX1257 (NSC819558), elimusertib (BAY 1895344; NSC800525), molibresib (GSK525762; NSC774829), temuterkib (LY3214996; NSC803410), venetoclax (NSC766270), alisertib (NSC759677), olaparib (NSC753686), talazoparib (NSC767125), erdafitinib (NSC781556), ipatasertib (NSC767898), cabozantinib (NSC761068), nintedanib (NSC756659), abemaciclib (NSC768073), docetaxel (NSC628503), trametinib (NSC758246), and sapanisertib (NSC764658) were obtained from the National Cancer Institute (NCI) Developmental Therapeutics Program Chemical Repository. The FDA-approved anticancer drug set is available from the Developmental Therapeutics Program. […] The stock solutions were prepared in dimethyl sulfoxide (DMSO, Sigma-Aldrich, St. Louis, MO, cat. D2650) at 800-fold the tested concentration and stored at -70 degrees C prior to their use. All drugs and investigational agents were tested over a range starting from a high concentration at or near the clinical Cmax and decreasing in half-log increments. If the clinical Cmax for an agent had not been determined, the highest concentration tested was 10 microM.
Cell Culture. All cells were maintained in an incubator at 37 degrees C and 5% CO2 with 95% humidity. The PDC lines were cultured according to standard operating procedures established by the NCI PDMR (https://pdmr.cancer.gov/sops/default.htm). Briefly, all PDCs were thawed and cultured in Matrigel-coated flasks prepared with a working solution of 1X Ham's F-12 nutrient mix, without supplementation (Invitrogen, Waltham, MA, cat. 11765054), 100 U/mL penicillin-streptomycin (Invitrogen, cat. 15140122), and 2.5% Matrigel (Corning Inc., Corning, NY, cat. 354248) for the first three passages. All PDCs were cultured in complete DMEM/F-12 media containing advanced DMEM/F-12 (Invitrogen, cat. 12634028), 4.9% defined fetal bovine serum, heat inactivated (HyClone Laboratories Inc., Logan, UT, cat. SH30070.03HI), 389 ng/mL hydrocortisone (Sigma-Aldrich, cat. H4001), 9.7 ng/mL human EGF recombinant protein (Invitrogen, cat. PHG0313), 23.4 microg/mL adenine (Sigma-Aldrich, cat. A2786), 97.3 U/mL penicillin-streptomycin (Invitrogen, cat. 15140122), 1.9 mM L-glutamine (Invitrogen, cat. 25030081), and 9.7 microM Y-27632 dihydrochloride (Tocris Bioscience, Bristol, United Kingdom, cat. 1254). The PDCs were cultured in complete DMEM/F12 media without 9.7 microM Y-27632 dihydrochloride for at least two passages prior to the screen. The established cell line HOP-62 was cultured in RPMI 1640 medium, HEPES (Invitrogen, cat. 22400105) with 10% defined fetal bovine serum (HyClone Laboratories Inc., cat. SH30070.03) and 2 mM L-glutamine (Invitrogen, cat. 25030081). The pooled donor HUVEC were cultured in endothelial cell growth medium 2 (PromoCell, Heidelberg, Germany, cat. C-22011) and the hMSC were cultured in mesenchymal stem cell growth medium 2 (PromoCell, cat. C-28009). For all experiments, HUVEC and hMSC were used at passages </=5, while the malignant cell lines were used at passages </=15. […]

Some results are limits rather than exact numbers.
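Note: spheroids exposed to agents for 7 days.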

In the case of `C=CC(=O)N1CCN(c2nc(=O)n(-c3c(C)ccnc3C(C)C)c3nc(-c4c(O)cccc4F)c(F)cc23)C(C)C1` (stereo not drawn), the viability, T/C was 103% [middle of 17 runs] (compound 0.1 µM); 103% [middle of 17 runs] (compound 0.316 µM); 103% [middle of 17 runs] (compound 1 µM); 104% [middle of 17 runs] (compound 3.16 µM); 100% [middle of 17 runs] (compound 10 µM). In addition, the IC50 reads like this: (compound alone, run of 08/19/2021) more than 10 µM; (compound alone, run of 08/26/2021) more than 10 µM; (compound alone, run of 09/02/2021) more than 10 µM.
As for `CCNC(=O)CC1N=C(c2ccc(Cl)cc2)c2cc(OC)ccc2-n2c(C)nnc21` (stereo not drawn) + C=CC(=O)N1CCN(c2nc(=O)n(-c3c(C)ccnc3C(C)C)c3nc(-c4c(O)cccc4F)c(F)cc23)C(C)C1, the IC50 by setting is: (curve of first compound, second compound 0.1 µM) more than 10 µM; (curve of first compound, second compound 0.316 µM) more than 10 µM; (curve of first compound, second compound 1 µM) more than 10 µM; (curve of first compound, second compound 3.16 µM) more than 10 µM; (curve of first compound, second compound 10 µM) more than 10 µM. Moreover, the viability, T/C reads like this: (second compound 0.1 µM, first compound 0.0316 µM) 100%; (second compound 0.1 µM, first compound 0.1 µM) 95.8%; (second compound 0.1 µM, first compound 0.316 µM) 88.1%; (second compound 0.1 µM, first compound 1 µM) 86%; (second compound 0.1 µM, first compound 3.16 µM) 74.7%; (second compound 0.1 µM, first compound 10 µM) 57.4%. For the same compound, the viability, T/C runs as follows: (second compound 0.316 µM, first compound 0.0316 µM) 99.9%; (second compound 0.316 µM, first compound 0.1 µM) 99.5%; (second compound 0.316 µM, first compound 0.316 µM) 84.5%; (second compound 0.316 µM, first compound 1 µM) 82%; (second compound 0.316 µM, first compound 3.16 µM) 71.1%; (second compound 0.316 µM, first compound 10 µM) 58%. In addition, the viability, T/C (second compound 1 µM, first compound 0.0316 µM) is 104%; the viability, T/C (second compound 1 µM, first compound 0.1 µM) was 104%; the viability, T/C (second compound 1 µM, first compound 0.316 µM) is 87.3%; the viability, T/C (second compound 1 µM, first compound 1 µM) is 86.8%; the viability, T/C (second compound 1 µM, first compound 3.16 µM) is 75.5%; the viability, T/C (second compound 1 µM, first compound 10 µM) was 64.7%. In addition, the viability, T/C is 104% (second compound 3.16 µM, first compound 0.0316 µM); 94.9% (second compound 3.16 µM, first compound 0.1 µM); 88.4% (second compound 3.16 µM, first compound 0.316 µM); 85.1% (second compound 3.16 µM, first compound 1 µM); 67.9% (second compound 3.16 µM, first compound 3.16 µM); 59% (second compound 3.16 µM, first compound 10 µM). The viability, T/C runs as follows: (second compound 10 µM, first compound 0.0316 µM) 102%; (second compound 10 µM, first compound 0.1 µM) 99%; (second compound 10 µM, first compound 0.316 µM) 84.6%; (second compound 10 µM, first compound 1 µM) 71.6%; (second compound 10 µM, first compound 3.16 µM) 73.9%; (second compound 10 µM, first compound 10 µM) 60.8%.

As usually defined, the viability, T/C is the result in the treated group divided by that in the control group, in per cent. Broadly, the IC50 is the concentration that inhibits the measured activity by half.
